The target in assay [1] is T1, human recombinant serotonin (5-Hydroxytryptamine) 5-HT2C receptor (Homo sapiens, UniProt P28335).
T1 construct: expressed in transfected cells; host or cells: CHO-K1 cells
T1 sequence (P28335 33-458): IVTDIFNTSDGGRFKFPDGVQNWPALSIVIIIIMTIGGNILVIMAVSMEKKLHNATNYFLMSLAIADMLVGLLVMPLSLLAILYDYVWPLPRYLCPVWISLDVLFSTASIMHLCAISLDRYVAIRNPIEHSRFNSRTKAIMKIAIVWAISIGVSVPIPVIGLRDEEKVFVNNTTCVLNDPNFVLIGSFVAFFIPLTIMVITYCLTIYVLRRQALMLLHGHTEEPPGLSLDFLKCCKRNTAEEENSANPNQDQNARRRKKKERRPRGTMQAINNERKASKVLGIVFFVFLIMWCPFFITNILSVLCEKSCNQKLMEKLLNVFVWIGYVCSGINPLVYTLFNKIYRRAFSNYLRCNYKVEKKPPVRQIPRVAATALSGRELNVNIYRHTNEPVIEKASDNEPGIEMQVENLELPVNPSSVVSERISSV
The experiment in a line: Serotonin 5-HT2C radioligand binding ([3H]Mesulergine). The conditions noted are these: read-out: Serotonin 5-HT2C, inhibition of ligand binding (1 μM). As to the method: To evaluate in radioligand binding assays the activity of compounds of the invention, human recombinant serotonin (5-Hydroxytryptamine) 5-HT2C receptor expressed in Chinese hamster ovary (CHO-K1) cells (Wolf, W. A. and Schutz, J. S., J. Neurochem. 69:1449, 1997) in a modified Tris-HCl buffer (50 mM Tris-HCl, pH 7.4, 0.1% Ascorbic Acid, 10 μM Pargyline) was used. Compounds of the invention were incubated with 1 nM [^3H]Mesulergine for 60 minutes at 25° C. Non-specific binding was estimated in the presence of 1 μM Mianserin. Receptor proteins were filtered and washed, the filters were then counted to determine [^3H]Mesulergine specifically bound. Compounds were screened at 1 μM or lower, using 1% DMSO as vehicle. Biochemical assay results are presented as the percent inhibition of specific binding in Table 4.

The target of assay [2] is T2, human recombinant histamine H1 receptor (Homo sapiens, UniProt P35367).
T2 construct: expressed in transfected cells; host or cells: CHO cells
The experiment in a line: Histamine H1 radioligand binding ([3H]Pyrilamine). The note with it: compound at 1 μM; inhibition of specific [3H]Pyrilamine binding; read-out: Histamine Binding (1 μM) H1, Percentage Inhibition. As for the experimental part:
To evaluate in radioligand binding assays the activity of compounds of the invention, human recombinant histamine H1 receptor expressed in Chinese hamster ovary (CHO) cells (De Backer, M. D. et al., Biochem. Biophys. Res. Comm. 197(3):1601, 1993) in a modified Tris-HCl buffer (50 mM Tris-HCl, pH 7.4, 2 mM MgCl2, 100 mM NaCl, 250 mM Sucrose) was used. Compounds of the invention were incubated with 1.2 nM [^3H]Pyrilamine for 180 minutes at 25° C. Non-specific binding was estimated in the presence of 1 μM pyrilamine. Receptor proteins were filtered and washed, the filters were then counted to determine [^3H]Pyrilamine specifically bound. Compounds were screened at 1 μM or lower, using 1% DMSO as vehicle. Biochemical assay results are presented as the percent inhibition of specific binding in Table 2.

For assay [3], the target named is T3, human recombinant histamine H2 receptor (Homo sapiens, UniProt P25021).
T3 construct: expressed in transfected cells; host or cells: CHO-K1 cells
The assay is described as follows: Histamine H2 radioligand binding ([125I]Aminopotentidine). The conditions noted are these: compound at 1 μM; inhibition of specific [125I]Aminopotentidine binding; read-out: Histamine Binding (1 μM) H2, Percentage Inhibition. As for the experimental part:
To evaluate in radioligand binding assays the activity of compounds of the invention, human recombinant histamine H2 receptor expressed in Chinese hamster ovary (CHO) K1 cells (Ruat, M., Proc. Natl. Acad. Sci. USA. 87(5):1658, 1990) in a 50 mM Phosphate buffer, pH 7.4 was used. Compounds of the invention were incubated with 0.1 nM [^125I]Aminopotentidine for 120 minutes at 25° C. Non-specific binding was estimated in the presence of 3 μM Tiotidine. Receptor proteins were filtered and washed, the filters were then counted to determine [^125I]Aminopotentidine specifically bound. Compounds were screened at 1 μM or lower, using 1% DMSO as vehicle. Biochemical assay results are presented as the percent inhibition of specific binding in Table 2.

Assay [4] deals with T4, human recombinant serotonin (5-Hydroxytryptamine) 5-HT2A receptor (Homo sapiens, UniProt P28223).
T4 construct: expressed in transfected cells; host or cells: CHO-K1 cells
The experiment in a line: Serotonin 5-HT2A radioligand binding ([3H]Ketanserin). The note with it: read-out: Serotonin 5-HT2A, inhibition of ligand binding (1 μM). As to the method: To evaluate in radioligand binding assays the activity of compounds of the invention, human recombinant serotonin (5-Hydroxytryptamine) 5-HT2A receptor expressed in Chinese hamster ovary (CHO-K1) cells (Bonhaus, D. W. et al. Br. J. Pharmacol. 115:622, 1995; Saucier, C. and Albert, P. R., J. Neurochem. 68:1998, 1997) in a 50 mM Tris-HCl buffer, pH 7.4, was used. Compounds of the invention were incubated with 0.5 nM [^3H]Ketanserin for 60 minutes at 25° C. Non-specific binding was estimated in the presence of 1 μM Mianserin. Receptor proteins were filtered and washed, the filters were then counted to determine [^3H]Ketanserin specifically bound. Compounds were screened at 1 μM or lower, using 1% DMSO as vehicle. Biochemical assay results are presented as the percent inhibition of specific binding in Table 4.

The structures appear in SMILES notation.

T3 sequence (P25021 whole entry): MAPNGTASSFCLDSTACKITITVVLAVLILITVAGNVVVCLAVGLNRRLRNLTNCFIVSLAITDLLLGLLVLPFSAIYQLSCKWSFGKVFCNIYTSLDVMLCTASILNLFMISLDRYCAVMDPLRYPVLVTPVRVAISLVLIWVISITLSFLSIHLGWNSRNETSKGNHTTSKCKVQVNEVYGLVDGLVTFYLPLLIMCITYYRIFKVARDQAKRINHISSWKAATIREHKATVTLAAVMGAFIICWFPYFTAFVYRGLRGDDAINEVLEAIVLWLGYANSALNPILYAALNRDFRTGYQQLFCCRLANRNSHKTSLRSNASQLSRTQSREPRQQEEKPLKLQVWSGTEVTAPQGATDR
T2 sequence (P35367 whole entry): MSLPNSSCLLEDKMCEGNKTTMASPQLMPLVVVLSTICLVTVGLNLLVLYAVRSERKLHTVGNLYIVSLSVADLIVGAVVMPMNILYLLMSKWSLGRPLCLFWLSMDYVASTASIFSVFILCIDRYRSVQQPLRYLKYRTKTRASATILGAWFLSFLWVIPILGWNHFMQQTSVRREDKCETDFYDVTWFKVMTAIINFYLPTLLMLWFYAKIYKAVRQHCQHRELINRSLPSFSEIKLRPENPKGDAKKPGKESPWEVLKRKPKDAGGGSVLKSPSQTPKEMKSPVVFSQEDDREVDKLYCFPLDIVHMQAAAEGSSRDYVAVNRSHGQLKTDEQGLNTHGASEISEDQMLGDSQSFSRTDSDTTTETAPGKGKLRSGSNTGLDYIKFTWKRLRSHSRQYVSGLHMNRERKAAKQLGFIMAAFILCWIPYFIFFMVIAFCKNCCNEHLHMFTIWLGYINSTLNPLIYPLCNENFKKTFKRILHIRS
T4 sequence (P28223 whole entry): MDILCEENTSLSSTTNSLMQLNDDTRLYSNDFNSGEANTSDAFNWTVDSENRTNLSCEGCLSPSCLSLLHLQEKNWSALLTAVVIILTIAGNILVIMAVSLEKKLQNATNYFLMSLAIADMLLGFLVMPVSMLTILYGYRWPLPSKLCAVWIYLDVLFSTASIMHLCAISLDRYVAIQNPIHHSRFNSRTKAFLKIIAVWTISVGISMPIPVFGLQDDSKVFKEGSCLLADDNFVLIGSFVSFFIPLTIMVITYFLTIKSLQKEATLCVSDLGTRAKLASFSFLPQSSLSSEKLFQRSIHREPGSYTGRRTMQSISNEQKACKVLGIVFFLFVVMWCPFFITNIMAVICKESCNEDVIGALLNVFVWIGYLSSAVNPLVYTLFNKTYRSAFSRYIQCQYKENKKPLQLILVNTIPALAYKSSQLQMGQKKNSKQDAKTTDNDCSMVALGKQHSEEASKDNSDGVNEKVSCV

The term inhibition denotes the change of the read-out against control, counted positive when it falls. For `Cc1ccc2c(c1)c1c(n2CCc2ccccc2)CC2CCCC1N2C` (stereo not drawn) [Compound 56], the inhibition at 1 µM in assay [1] was 36%; in assay [2], 86%; in assay [3], 16%; in assay [4] it was 31%.

Regarding `CN1C2CCC1c1c(n(CCc3ccc(F)cc3)c3ccc(Cl)cc13)C2` (stereo not drawn) [Compound 57], the inhibition at 1 µM in assay [1] was determined as 88%; in assay [2], 96%; in assay [3] it was 37%; in assay [4], 79%.

Consider `CN1C2CCC1c1c(n(CCc3ccc(Cl)cc3)c3ccc(Cl)cc13)C2` (stereo not drawn) [Compound 58], for which the inhibition at 1 µM in assay [1] is 84%; in assay [2], 98%; in assay [3], 52%; in assay [4] it was 79%.

Regarding `CCOC(=O)CCn1c2c(c3cc(Cl)ccc31)C1CCC(C2)N1C` (stereo not drawn) [Compound 70, ethyl 3-(2-chloro-11-methyl-5,6,7,8,9,10-hexahydro-7,10-iminocyclohept[b]indol-5-yl)propanoate], the inhibition at 1 µM in assay [1] came out at 4%; in assay [2] it was 65%; in assay [3] it was 7%; in assay [4] it was 16%.

With `CN1C2CCC1c1c(n(CCC(=O)O)c3ccc(Cl)cc13)C2` (stereo not drawn) [Compound 72], the inhibition at 1 µM in assay [1] was -4%; in assay [2] it was 14%; in assay [3], 7%; in assay [4] it was -6%.

Regarding `CN1C2CCC1c1c(n(CCC(N)=O)c3ccc(Cl)cc13)C2` (stereo not drawn) [Compound 73], the inhibition at 1 µM in assay [1] is 5%; in assay [2] it was 10%; in assay [3], -1%; in assay [4], -9%.

Regarding `CN1C2CCC1c1c(n(CCc3ccc(C(F)(F)F)nc3)c3cc(F)c(Cl)cc13)C2` (stereo not drawn) [Compound 77], the inhibition at 1 µM is -8% in assay [1], 32% in assay [2], 7% in assay [3] and 26% in assay [4].

Take `Cc1ccc(CCn2c3c(c4cc(Cl)ccc42)C2CCC(C3)N2C)cn1` (stereo not drawn) [Compound 79]: the inhibition at 1 µM in assay [1] worked out at 13%; in assay [2], 93%; in assay [3] it was 1%; in assay [4] it was 28%.

As for `CN1C2CCC1c1c(n(CCc3cccnc3)c3ccc(Cl)cc13)C2` (stereo not drawn) [Compound 80], the inhibition at 1 µM in assay [1] is 16%; in assay [2] it was 94%; in assay [3], -3%; in assay [4], 33%.

Turning to `Cc1ccc2c(c1)c1c(n2CCc2cnc(C)nc2)CC2CCC1N2C` (stereo not drawn) [Compound 81], the inhibition at 1 µM in assay [1] is 25%; in assay [2], 51%; in assay [3] it was -9%; in assay [4], -12%.

With `Cc1ncc(CCn2c3c(c4cc(Cl)ccc42)C2CCC(C3)N2C)cn1` (stereo not drawn) [Compound 82], the inhibition at 1 µM in assay [1] is 60%; in assay [2] it was 44%; in assay [3], -8%; in assay [4], -16%.

On to `COc1ccc(CCn2c3c(c4cc(C)ccc42)C2CCC(C3)N2C)cc1` (stereo not drawn) [Compound 83], for which the inhibition at 1 µM in assay [1] is 82%; in assay [2], 98%; in assay [3], 15%; in assay [4], 71%.

`COc1ccc(CCn2c3c(c4cc(Cl)ccc42)C2CCC(C3)N2C)cc1` (stereo not drawn) [Compound 84]: the inhibition at 1 µM worked out at 93% in assay [1], 83% in assay [2], 63% in assay [3] and 77% in assay [4].

`Cc1ccc2c(c1)c1c(n2CCCc2ccc(Cl)cc2)CC2CCC1N2C` (stereo not drawn) [Compound 85]: the inhibition at 1 µM is 89% in assay [1], 99% in assay [2], 81% in assay [3] and 95% in assay [4].

As for `Cc1ccc2c(c1)c1c(n2CCc2cccnc2)CC2CCC1N2C` (stereo not drawn) [Compound 86], the inhibition at 1 µM in assay [1] was 72%; in assay [2], 99%; in assay [3] it was 26%; in assay [4] it was 64%.

For the molecule `CN1C2CCC1c1c(n(CCc3cncc(Cl)c3)c3ccc(Cl)cc13)C2` (stereo not drawn) [Compound 87], the inhibition at 1 µM in assay [1] is 30%; in assay [2], 96%; in assay [3] it was 7%; in assay [4], 51%.

As to `Cc1ccc2c(c1)c1c(n2CCc2cncc(Cl)c2)CC2CCC1N2C` (stereo not drawn) [Compound 88], the inhibition at 1 µM in assay [1] was 31%; in assay [2], 95%; in assay [3] it was 5%; in assay [4], 55%.

For the molecule `Cc1cncc(CCn2c3c(c4cc(Cl)ccc42)C2CCC(C3)N2C)c1` (stereo not drawn) [Compound 89], the inhibition at 1 µM in assay [1] was 26%; in assay [2], 92%; in assay [3] it was -1%; in assay [4], 27%.

Take `Cc1cncc(CCn2c3c(c4cc(C)ccc42)C2CCC(C3)N2C)c1` (stereo not drawn) [Compound 90]: the inhibition at 1 µM is 27% in assay [1], 93% in assay [2], -1% in assay [3] and 30% in assay [4].

For the molecule `Cc1ccc2c(c1)c1c(n2CC(O)c2ccc(C)nc2)CC2CCC1N2C` (stereo not drawn) [Compound 91], the inhibition at 1 µM was -4% in assay [1], 51% in assay [2], 9% in assay [3] and 2% in assay [4].

Consider `Cc1ccc(CCn2c3c(c4ccccc42)C2CCC(C3)N2C)cn1` (stereo not drawn) [Compound 92], for which the inhibition at 1 µM in assay [1] is 9%; in assay [2], 54%; in assay [3] it was 11%; in assay [4] it was 16%.

On to `Cc1ccc2c(c1)c1c(n2CC(=O)N2CCCCC2)CC2CCC1N2C` (stereo not drawn) [Compound 93], for which the inhibition at 1 µM in assay [1] is 7%; in assay [2], 4%; in assay [3], -5%; in assay [4], -12%.

Take `CN1[C@@H]2CC[C@H]1c1c(n(CCc3ccc(F)cc3)c3ccc(F)cc13)C2` [Compound 94, (+)-(7S,10R)-2-Fluoro-5-(4-fluorophenethyl)-11-methyl-5,6,7,8,9,10-hexahydro-7,10-iminocyclohept[b]indole]: the inhibition at 1 µM in assay [1] came out at 75%; in assay [2] it was 92%; in assay [3], 4%; in assay [4], 81%.

In the case of `CN1[C@H]2CC[C@@H]1c1c(n(CCc3ccc(F)cc3)c3ccc(F)cc13)C2` [Compound 95, (−)-(7R,10S)-2-Fluoro-5-(4-fluorophenethyl)-11-methyl-5,6,7,8,9,10-hexahydro-7,10-iminocyclohept[b]indole], the inhibition at 1 µM was found to be 55% in assay [1], 55% in assay [2], 8% in assay [3] and 57% in assay [4].

The values are drawn from US8546381B2, “Bridged heterocyclic compounds and methods of use” (Medivation Technologies, Inc., priority 2008, dated 2013).
